In brackets after ≈: the same amount, converted by molar mass. Where two headings read alike, the source gives them in different places. Non-standard residues stand in square brackets, D forms with d. Residues, ends and D or L forms follow the SMILES beside them. Abu = CC[C@H](N)C(=O)O
Experiments:
[1] = test system: Fusarium culmorum (IMI 180420); experiment: Antifungal growth inhibition microplate assay (photospectrometry); format: cell-based; settings: for F CULMORUM IC50: Table 7 / FIG. 8: Rs-AFP1-based 12-mer split peptides; for F CULMORUM IC: Table 6 / FIG. 8: Rs-AFP1-based 9-mer split peptides; for IC50 SMF + pH5 / IC50 SMF + pH7 / IC50 1/2 PDB: duplo; for IC50 ½ PDB: peptides single experiment; for IC50 1/2 PDB: 2 × 10^4 spores/ml
Protocol: (§1) The following fungal strains were used: Alternaria brassicicola (MUCL 20297), Ascophyta pisi (MUCL 30164), Botrytis cinerea (MUCL 30158), Fusarium culmorum (IMI 180420) and Verticillium dahliae (MUCL 19210).
(§2) Fungi were grown on six cereal agar plates at room temperature and under white fluorescent light except for F culmorum and V dahliae which were grown in the dark. The duration of the spore harvest varied between 10 and 25 days depending on the strain. Spores were collected as follows. Five to ten ml of sterile milli-Q water was poured into each dish and the surface of the agar was rubbed with a sterile spatula to obtain a suspension containing mycelium and spores. This suspension was filtered through a sterile glasswool-plugged funnel and the filtrate containing the spores was collected in a sterile polypropylene centrifuge tube. The A brassicicola spores were suspended in sterile 0.1 Tween 20 (Merk, 822184) due to their hydrophobic nature. The spore suspensions were then washed twice by centrifugation at 2,400×g for 15 minutes and resuspended in a small volume of steril milli-Q water. The spore density was determined in a counting chamber and then adjusted to 4×10^7 spores per ml. Aliquots of the spore suspension were transferred to sterile microtubes and an equal volume of sterile 50% glycerol (Merck, 4091) was added to each tube so that a final spore suspension of 2×10^7 spores per ml in 25% glycerol was obtained. After careful mixing of the stock, the spore suspension was transferred in 100 μl aliquots to sterile microtubes and stored at −80° C.
(§3) Antifungal activity was measured by photospectrometry as described by Broekaert et al, (1990, FEMS Microbiol Lett, 69:55-60). Tests were performed by adding 20 μl of test solution and 80 μl of a fungal spore suspension (2×10^4 spores/ml) per well in a sterile flat-bottom 96-well microtiterplate. The spore suspension was prepared by diluting the stock spore suspension ([…] in 25% glycerol) 1:1000 in half-strength potato dextrose broth. A positive growth control consisting of eight wells containing 20 μl of sterile milli-Q water and 80 μl of the fungal spore suspension was included in each test. The microtiterplates were incubated (with the lid on) in an aerated place at room temperature and under conditions of darkness for all test organisms.
(§4) After 30 minutes of incubation (when the spores are settled on the well bottom) the optical density was measured in a microplate reader (Bio Rad 3550-UV) at 595 nm. Incubation of the microtiterplates continued until the optical density of the control microculture was between 0.250 and 0.500, which took approximately 72 hours (96 hours for V dahliae). Percentage of growth inhibition (% GI) was estimated as 100 times the ratio of the corrected absorbance of the control microculture minus the corrected absorbance of the test microculture over the corrected absorbance of the control microculture at 595 nm. The corrected absorbance values equal the absorbance at 595 nm of the culture measured after 72 or 96 hours minus the absorbance at 595 nm measured after 30 minutes.
(§5) % GI=[(Acontrol−Atest/Acontrol]×100
(§6) where Acontrol=(A72/96h−A30min)control
(§7) The IC50 value is defined as the concentration that gives a 50% growth inhibition after 72 or 96 hours of incubation. The minimum inhibitory concentration (MIC) corresponds to the minimum concentration that gives 100% growth inhibition after 72 or 96 hours incubation.

[2] = test system: Ascophyta pisi (MUCL 30164); format: cell-based; settings: ½ PDB; for A PISI IC: the source numbers peptides by N-terminal amino acid
Protocol: as §1, §2, §3, §4, §5, §6, §7

[3] = Table 4 / FIG. 6: Rs-AFP2-based 12-mer split peptides, ½ PDB, the source numbers peptides by N-terminal amino acid
[4] = Table 4: Rs-AFP2-based 12-mer split peptides, ½ PDB, triplicate
[5] = ½ PDB, the source numbers peptides by N-terminal amino acid
[6] = Table 7: Rs-AFP1-based 12-mer split peptides, ½ PDB
[7] = Table 7: Rs-AFP1-based 12-mer split peptides
[8] = Table 3 / FIG. 6: Rs-AFP2-based 9-mer split peptides, ½ PDB, the source numbers peptides by N-terminal amino acid
[9] = Table 3: Rs-AFP2-based 9-mer split peptides, ½ PDB, duplicate
[10] = Table 6: Rs-AFP1-based 9-mer split peptides, ½ PDB
[11] = Table 6: Rs-AFP1-based 9-mer split peptides
[12] = Table 14: 18-, 19-, 20-mer peptides with C-terminal Phe49
[13] = Table 10: medium 1/16 PDB, one test, fungus not named in Example 7
[14] = Table 10: medium ½ PDB, one test, fungus not named in Example 7
[15] = Table 13: linear β2-β3 loop MPS peptides
[16] = Table 13: linear β2-β3 loop MPS peptides, SMF+ (1 mM Ca2+, 50 mM K+) pH5
[17] = Table 13: linear β2-β3 loop MPS peptides, SMF+ (1 mM Ca2+, 50 mM K+) pH7

Ac-HGSCNYVFPAHK-NH2 [compound 122]
IC50 [1, 3]: 30 µg/mL
MIC [1, 4]: 50 µg/mL
F CULMORUM IC50 [1, 5]: 35 µg/mL
F CULMORUM MIC [1, 6]: 50 µg/mL
A PISI IC50 [2, 7]: 74 µg/mL
A PISI MIC [2, 7]: 100 µg/mL

114 (CIRLEKARHGSC; listed as Raphanus sativus) [compound 114]
IC50 [1, 3]: 74 µg/mL
MIC [1, 4]: 100 µg/mL
F CULMORUM IC50 [1, 5]: 328 µg/mL
F CULMORUM MIC [1, 6]: 400 µg/mL
A PISI IC50 [2, 7]: 318 µg/mL
A PISI MIC [2, 7]: >400 µg/mL

Ac-RHGSCNYVF-NH2 [compound 78]
IC50 [1, 8]: 284 µg/mL
MIC [1, 9]: 400 µg/mL
F CULMORUM IC [1, 5]: 69 µg/mL
F CULMORUM MIC [1, 10]: 100 µg/mL
A PISI MIC [2, 11]: 100 µg/mL
A PISI IC [2, 11]: 70 µg/mL

CC[C@H](C)[C@H](NC(=O)[C@H](CS)NC(=O)[C@H](CCCCN)NC(=O)[C@H](Cc1c[nH]cn1)NC(C)=O)C(=O)N[C@@H](CS)C(=O)N[C@@H](Cc1ccc(O)cc1)C(=O)N[C@@H](Cc1ccccc1)C(=O)N1CCC[C@H]1C(=O)N[C@@H](CS)C(N)=O [compound 89] (Ac-HKCICYFPC-NH2)
F CULMORUM IC [1, 5]: 233 µg/mL
A PISI IC [2, 11]: 70 µg/mL

CC[C@H](C)[C@H](NC(=O)[C@H](CS)NC(=O)[C@H](CCCCN)NC(=O)[C@H](Cc1c[nH]cn1)NC(=O)[C@H](C)NC(=O)[C@@H]1CCCN1C(=O)[C@H](Cc1ccccc1)NC(=O)[C@@H](NC(C)=O)C(C)C)C(=O)N[C@@H](CS)C(=O)N[C@@H](Cc1ccc(O)cc1)C(=O)N[C@@H](Cc1ccccc1)C(=O)N1CCC[C@H]1C(N)=O [compound 128] (Ac-VFPAHKCICYFP-NH2)
IC50 [1, 3]: 344 µg/mL (≈ 235 µM)
MIC [1, 4]: >400 µg/mL
F CULMORUM IC50 [1, 5]: 320 µg/mL
F CULMORUM MIC [1, 6]: >400 µg/mL
A PISI IC50 [2, 7]: 181 µg/mL
A PISI MIC [2, 7]: 400 µg/mL

Ac-KARHGSCNY-NH2 [compound 76]
IC50 [1, 8]: 162 µg/mL
MIC [1, 9]: 300 µg/mL
F CULMORUM IC [1, 5]: 169 µg/mL
F CULMORUM MIC [1, 10]: 250 µg/mL
A PISI MIC [2, 11]: >400 µg/mL
A PISI IC [2, 11]: 342 µg/mL

CC[C@H](NC(=O)[C@H](CO)NC(=O)CNC(=O)[C@H](Cc1c[nH]cn1)NC(=O)[C@H](CCCNC(=N)N)NC(=O)[C@H](C)NC(C)=O)C(=O)N[C@@H](CC(N)=O)C(=O)N[C@@H](Cc1ccc(O)cc1)C(=O)N[C@H](C(=O)N[C@@H](Cc1ccccc1)C(=O)N1CCC[C@H]1C(=O)N[C@@H](C)C(=O)N[C@@H](Cc1c[nH]cn1)C(=O)N[C@@H](CCCCN)C(=O)N[C@@H](CC)C(=O)N[C@H](C(=O)N[C@@H](CC)C(=O)N[C@@H](Cc1ccc(O)cc1)C(=O)N[C@@H](Cc1ccccc1)C(N)=O)[C@@H](C)CC)C(C)C [Peptide 001, ARHGSBNYVFPAHKBIBYF] (Ac-ARHGS[Abu]NYVFPAHK[Abu]I[Abu]YF-NH2)
IC50 SMF + pH5 [1, 12]: 102 ± 2 μg/ml
IC50 SMF + pH7 [1, 12]: 159 ± 5 μg/ml
IC50 ½ PDB [1, 12]: 5.6 µg/mL (≈ 2.54 µM)

Ac-QCIRLEKAR-NH2 [compound 70]
IC50 [1, 8]: 78 µg/mL
MIC [1, 9]: 100 µg/mL

CC[C@H](NC(=O)[C@H](C)NC(=O)CNC(=O)[C@H](Cc1c[nH]cn1)NC(=O)[C@H](CO)NC(=O)[C@H](C)NC(C)=O)C(=O)N[C@@H](Cc1c[nH]cn1)C(=O)N[C@@H](CCCCN)C(=O)N[C@@H](CCCNC(=N)N)C(=O)N[C@@H](CCC(=O)O)C(=O)N[C@@H](CC(N)=O)C(=O)N[C@@H](Cc1c[nH]cn1)C(=O)N[C@@H](Cc1c[nH]c2ccccc12)C(=O)N[C@@H](CCCCN)C(=O)N[C@@H](CC)C(=O)N[C@@H](Cc1ccccc1)C(=O)N[C@@H](CC)C(=O)N[C@@H](Cc1ccc(O)cc1)C(=O)N[C@@H](Cc1ccccc1)C(N)=O [Peptide J1, ASHGABHKRENHWKBFBYF] (Ac-ASHGA[Abu]HKRENHWK[Abu]F[Abu]YF-NH2)
antifungal activity compared with peptide G1 (and G2), in words ([1]; 19-mer peptides, Example 7): even more active
IC50 [1, 13]: 5 µg/mL (≈ 2.16 µM)
MIC [1, 13]: 6.25 µg/mL (≈ 2.7 µM)
IC50 [1, 14]: 9 µg/mL (≈ 3.89 µM)
MIC [1, 14]: 12.5 µg/mL (≈ 5.41 µM)
IC50 1/2 PDB [1, 15]: 9.1 ± 0.6 µg/mL (≈ 3.94 µM)
IC50 SMF + pH5 [1, 16]: 47 ± 33 μg/ml
IC50 SMF + pH7 [1, 17]: 173.4 ± 0.2 μg/ml
activity compared to Rs-AFP counterpart G2 ([1]; ½ PDB): almost two-fold higher activity

Ac-LEKARHGSC-NH2 [compound 74]
IC50 [1, 8]: 270 µg/mL
MIC [1, 9]: 400 µg/mL
F CULMORUM IC [1, 5]: 370 µg/mL
F CULMORUM MIC [1, 10]: >400 µg/mL

110 (CKNQCIRLEKAR; listed as Raphanus sativus) [compound 110]
IC50 [1, 3]: 148 µg/mL
MIC [1, 4]: 200 µg/mL
F CULMORUM IC50 [1, 5]: 223 µg/mL
F CULMORUM MIC [1, 6]: 400 µg/mL

CC[C@H](C)[C@H](NC(=O)[C@H](CS)NC(=O)[C@H](CCC(N)=O)NC(=O)[C@H](CC(N)=O)NC(=O)[C@H](CCCCN)NC(=O)[C@H](CS)NC(=O)[C@H](C)NC(=O)[C@H](CC(N)=O)NC(=O)[C@H](CC(N)=O)NC(=O)[C@H](CC(N)=O)NC(C)=O)C(=O)N[C@@H](CCCNC(=N)N)C(=O)N[C@@H](CC(C)C)C(N)=O [compound 106] (Ac-NNNACKNQCIRL-NH2)
IC50 [1, 3]: 116 µg/mL (≈ 81 µM)
MIC [1, 4]: 150 µg/mL (≈ 105 µM)

CC[C@H](NC(=O)[C@H](C)NC(=O)CNC(=O)[C@H](Cc1c[nH]cn1)NC(=O)[C@H](C)NC(=O)[C@H](C)NC(C)=O)C(=O)N[C@@H](Cc1c[nH]cn1)C(=O)N[C@H](C(=O)N[C@@H](CCCNC(=N)N)C(=O)N[C@@H](CC(N)=O)C(=O)NCC(=O)N[C@@H](CCCCN)C(=O)N[C@@H](Cc1c[nH]cn1)C(=O)N[C@@H](CCSC)C(=O)N[C@@H](CC)C(=O)N[C@@H](Cc1ccccc1)C(=O)N[C@@H](CC)C(=O)N[C@@H](Cc1ccc(O)cc1)C(=O)N[C@@H](Cc1ccccc1)C(N)=O)C(C)C [Peptide N5, AAHGABHVRNGKHMBFBYF] (Ac-AAHGA[Abu]HVRNGKHM[Abu]F[Abu]YF-NH2)
IC50 1/2 PDB [1, 15]: 8.0 ± 0.4 µg/mL (≈ 3.74 µM)
IC50 SMF + pH5 [1, 16]: 20.9 ± 1.8 μg/ml
IC50 SMF + pH7 [1, 17]: 24.2 ± 0.2 μg/ml
activity compared to Rs-AFP counterpart G2 ([1]; ½ PDB): almost two-fold higher activity

Ac-IRLEKARHGSCN-NH2 [compound 115]
IC50 [1, 3]: 203 µg/mL
MIC [1, 4]: 300 µg/mL

CC[C@H](NC(=O)[C@H](CO)NC(=O)CNC(=O)[C@H](Cc1c[nH]cn1)NC(=O)[C@H](CCCNC(=N)N)NC(=O)[C@H](C)NC(=O)[C@H](CCCCN)NC(C)=O)C(=O)N[C@@H](CC(N)=O)C(=O)N[C@@H](Cc1ccc(O)cc1)C(=O)N[C@H](C(=O)N[C@@H](Cc1ccccc1)C(=O)N1CCC[C@H]1C(=O)N[C@@H](C)C(=O)N[C@@H](Cc1c[nH]cn1)C(=O)N[C@@H](CCCCN)C(=O)N[C@@H](CC)C(=O)N[C@H](C(=O)N[C@@H](CC)C(=O)N[C@@H](Cc1ccc(O)cc1)C(=O)N[C@@H](Cc1ccccc1)C(N)=O)[C@@H](C)CC)C(C)C [Peptide Q06, KARHGSBNYVFPAHKBIBYF] (Ac-KARHGS[Abu]NYVFPAHK[Abu]I[Abu]YF-NH2)
IC50 SMF + pH5 [1, 12]: 31 ± 17 μg/ml
IC50 SMF + pH7 [1, 12]: 62 ± 8 μg/ml
IC50 ½ PDB [1, 12]: 4.8 µg/mL (≈ 2.06 µM)

Reference: patent US20030226169A1, “DNA sequences encoding antifungal proteins” (priority 1995, published 2003)
